Assays:
[1] = system: MALT1 dependent ABC-DLBCL cells HBL-1, TMD8, OCI-Ly3 and OCI-Ly10; assay: Growth inhibition, MALT1 dependent cell lines; format: cell-based, human; settings: increasing concentrations, single dose, 48 hr
Experimental: Endogenous MALT1 activity was evaluated by Western blotting for A20, BCL10 and CYLD; and NF-κB activation, by phospho-IκB-α and total IκB-α. Dependence on MALT1 proteolytic activity for proliferation was tested by 50[…]μM Z-VRPR-FMK treatment for 48 hr. […] The U2932 and HLY1 ABC-DLBCL cell lines harbor mutations in TAK1 and A20, which activate NF-κB signaling downstream of MALT1.
Cell proliferation was determined by ATP quantification using a luminescent method (CellTiter-Glo, Promega, Madison, Wis.) and Trypan blue dye-exclusion (Sigma, St. Louis, Mo.). Cell viability in drug-treated cells was normalized to their respective controls (fractional viability) and results are given as 1-fractional viability. […]
DLBCL cell lines were grown in exponential growth conditions during the 48 hr of treatment. Cell proliferation was determined by ATP quantification using a luminescent method (CellTiter-Glo, Promega, Madison, Wis.) and Trypan blue dye-exclusion (Sigma, St. Louis, Mo.). Luminescence was measured using the Synergy4 microplate reader (BioTek Instruments, Winooski, Vt.). Standard curves for each cell line were calculated by plotting the cell number (determined by the Trypan blue method) against their luminescence values and number of cells was calculated accordingly. […]

Caspase-3 = Caspase-3 (Homo sapiens, UniProt P42574); assay: Caspase selectivity; format: biochemical
Caspase-3, sequence (P42574 29-175 limits assumed, species assumed): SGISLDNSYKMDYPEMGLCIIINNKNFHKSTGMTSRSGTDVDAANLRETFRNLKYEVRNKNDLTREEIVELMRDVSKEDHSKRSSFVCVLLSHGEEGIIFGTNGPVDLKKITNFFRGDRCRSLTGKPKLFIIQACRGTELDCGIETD
Caspase-3, sequence (P42574 176-277 limits assumed, species assumed): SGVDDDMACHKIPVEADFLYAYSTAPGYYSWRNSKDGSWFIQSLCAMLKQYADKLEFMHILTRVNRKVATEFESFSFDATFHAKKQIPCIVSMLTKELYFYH

[2] = molecular target: T1, MALT1 paracaspase domain (329-728) (Homo sapiens, UniProt Q9UDY8); assay: LC-MS covalent modification; format: binding
T1 construct: MALT1 paracaspase domain (329-728) presented a major peak at 55,988.4 Da
T1 sequence (Q9UDY8 329-728): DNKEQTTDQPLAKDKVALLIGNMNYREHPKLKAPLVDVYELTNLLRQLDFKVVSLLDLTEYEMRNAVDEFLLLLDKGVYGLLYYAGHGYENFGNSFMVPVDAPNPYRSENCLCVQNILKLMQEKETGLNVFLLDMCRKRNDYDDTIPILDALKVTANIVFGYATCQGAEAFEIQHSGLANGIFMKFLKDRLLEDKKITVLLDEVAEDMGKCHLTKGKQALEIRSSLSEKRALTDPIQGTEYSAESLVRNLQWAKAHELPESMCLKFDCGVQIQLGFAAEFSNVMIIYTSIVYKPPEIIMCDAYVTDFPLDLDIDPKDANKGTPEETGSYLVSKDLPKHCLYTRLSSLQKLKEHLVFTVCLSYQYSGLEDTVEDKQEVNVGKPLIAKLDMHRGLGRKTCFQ
Experimental: (§1) The final results were ranked on the predicted binding free energy and the cluster size for each docking conformation.
(§2) HPLC/ESI-MS experiments were carried out on 5 μl sample at 1 mg/ml protein concentration. Separation of proteins was performed on a HP 1100 system (Hewlett Packard, Palo Alto, Calif., USA) employing a 1 mm×150 mm LC Packings column packed with POROS R1/H (Perseptive Biosystems, Foster City, Calif., USA). The column was kept at 80° C. Samples were injected onto the column using a CTC PAL autosampler (CTC, Zwingen Switzerland) fitted with a Valco model C6UW HPLC valve (Valco, Houston, Tex., USA) and a 10 μl injection loop. HPLC was controlled by MassLynx software (Micromass, Manchester, UK). UV detection was performed at 214 nm. Eluent A was water containing 0.05% TFA. Eluent B was a 1:9 mixture of water:acetonitrile containing 0.045% TFA. A gradient from 20% B to 90% B was run in 20 minutes. The flow rate was typically 60 μl/min. The total flow from the LC system was introduced into the UV detection cell prior to introduction in the ESI source. The HPLC system was controlled and the signal from the UV detector was processed using MassLynx software. […] Data were recorded and processed using MassLynx software. […]

[3] = molecular target: T2, MALT1 active site mutant C464A (Homo sapiens, UniProt Q9UDY8, C464A); assay: LC-MS covalent modification, active site mutant; format: binding
T2 construct: MALT1 paracaspase domain (329-728) presented a major peak at 55,988.4 Da
T2 sequence (Q9UDY8 329-728 C464A): as the sequence (Q9UDY8 329-728) above, with C136A counted along it
Experimental: as §1, §2

[4] = system: MALT1^WT NF-κB activation; assay: NF-κB reporter assay in 293T cells, PMA/ionomycin, BCL10 and MALT1 WT; format: cell-based; settings: pre-treatment
From the text: (§3) Antigen receptor-mediated NF-κB signaling partly depends on MALT1 activity (Ruefli-Brasse et al., 2003; Ruland et al., 2003). […] First, 293T cells were transfected with the NF-κB reporter vector (NF-κB)5-luc2CP-pGL4 (harboring 5 copies of the NF-κB consensus response element and a destabilized Firefly luciferase) and TK-pRL control together with plasmids expressing BCL10 and either MALT1^WT or MALT1^C464A. […] HBL-1 was transfected with the reporter construct (NF-κB)5-luc2CP-pGL4 and TK-pRL control.
(§4) Reporter assays were performed in 293T cells seeded at a density of 2×10^5 cells per well of a 12-well dish. 100 ng of (NF-κB)5-Luc2CP-pGL4 and 10 ng of TK-Renilla internal control plasmid were cotransfected along with 25 ng of the indicated plasmids (MIGR1-MALT1^WT or MIGR1-MALT1^C464A and pcDNA4-Flag-Bcl10) using Lipofectamine 2000 (Invitrogen). Lysates were submitted to dual luciferase assays following manufacturer's protocol (Promega). In HBL-1, 5 μg of (NF-κB)5-Luc2CP-pGL4 and 50 ng of TK-Renilla internal control plasmid per 5×10^6 cells were cotransfected using nucleofection (Amaxa, Lonza, Basel, Switzerland). Forty-eight hours after transfection, cells were plated at a density of 5×10^4 cells per well of a 24-well plate and treated as indicated. Lysates were submitted to dual luciferase assays following manufacturer's protocol (Promega).

NF-κB reporter activity = assay: NF-κB reporter assay in HBL-1 cells; format: cell-based, human
From the text: as §3, §4

c-REL nuclear protein = assay: c-REL immunofluorescence in paraffinized xenograft tumor sections; format: in vivo, mice; settings: IP 25 mg/kg/day
From the text: Animals were sacrificed 24 hr after the fourteenth injection.
Paraffin-embedded tumor xenografts were sectioned, dewaxed and submitted to antigen retrieval. For IF-P, Alexa Fluor-488 conjugated secondary antibodies from Invitrogen where used and cell nuclei where counterstained with DAPI. Fluorescent images were taken using an Axiovert 200M fluorescent microscope (Carl Zeiss Inc., Thornwood, N.Y.). Oberkochen, Germany). For IHC, biotin-conjugated secondary antibodies where used. Then avidin/biotin peroxidase was applied to the slides (Vector Laboratories). Color was developed with diaminobenzoate chromogen peroxidase substrate (Vector) and counterstained with hematoxilin-eosyn. Pictures were obtained using an AxioCam (Carl Zeiss Inc.) camera attached to an AxioSkop II light microscope (Carl Zeiss Inc.). Samples were reviewed by a pathologist.

COCCOc1nc(-c2ccc(Cl)c(Cl)c2)n(-c2ccc(NC(=O)CCl)cc2)n1 [MI-2]
growth inhibition [1]: selective for MALT1 dependent cell lines | activity against Caspase-3 (Caspase-3): little activity | covalent binding to MALT1 ([2]; LC-MS): bind covalently | increase of the major peak of MALT1 upon incubation ([2]; LC-MS, 55,988.4 Da shifted to 56,407.5 Da): 419.1 Da | covalent binding to MALT1 C464A [3]: markedly reduced covalent binding | NF-κB induction by PMA/ionomycin stimulation [4]: significantly inhibited NF-κB induction | reduction in NF-κB reporter activity (NF-κB reporter activity; HBL-1, 8 hr): 20% | reduction in NF-κB reporter activity (NF-κB reporter activity; HBL-1, 24 hr): 50% | c-REL nuclear protein in tumors (c-REL nuclear protein): reduced c-REL nuclear protein

From patent US9592223B2, “Small molecule inhibitors of MALT1” (Cornell University, priority 2012, dated 2017)
